Laboratory results as given in PubChem BioAssay (NCI).
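Compound exposure: 48 hours, 5 concentrations, 96-well plates. Here, GI50 denotes the concentration required for 50% inhibition of growth. TGI: total growth inhibition.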

Legend:
Test in all cases: inhibition of tumour cell growth, NCI panel, 48 h
BT-549 breast = system: BT-549 breast
KM12 colon = system: KM12 colon
MDA-N = system: MDA-N
SF-268 CNS = system: SF-268 CNS
MOLT-4 leukemia = system: MOLT-4 leukemia
SR leukemia = system: SR leukemia
786-0 renal = system: 786-0 renal
ACHN renal = system: ACHN renal
DLD-1 colon = system: DLD-1 colon
DMS 114 small cell lung = system: DMS 114 small cell lung
DMS 273 small cell lung = system: DMS 273 small cell lung
KM20L2 colon = system: KM20L2 colon
SN12K1 renal = system: SN12K1 renal
SNB-78 CNS = system: SNB-78 CNS
XF 498 CNS = system: XF 498 CNS

| SMILES | TGI (BT-549 breast) [µM] | TGI (KM12 colon) [µM] | TGI (MDA-N) [µM] | TGI (SF-268 CNS) [µM] | TGI (MOLT-4 leukemia) [µM] | TGI (SR leukemia) [µM] | TGI (786-0 renal) [µM] | TGI (ACHN renal) [µM] | also measured |
| --- | --- | --- | --- | --- | --- | --- | --- | --- | --- |
| CN(C)C(=S)SCc1ccccc1 | > 100 | > 100 | > 100 | > 100 |  |  |  |  |  |
| C/C(=C\c1ccc2c(c1)OCO2)[N+](=O)[O-] |  |  |  | 10.7 | 1.13 | 2.39 |  |  |  |
| C(=N/Nc1ccccn1)/c1cccnc1 | > 100 | > 100 | > 100 | > 100 | > 100 |  | > 100 | > 100 |  |
| CCOC(=O)c1cc(Cl)ccc1OC(N)=O |  | > 100 |  | > 100 | > 100 |  |  |  | TGI (DLD-1 colon): > 100 µM; TGI (DMS 114 small cell lung): > 100 µM; TGI (DMS 273 small cell lung): > 100 µM; TGI (KM20L2 colon): > 100 µM; TGI (SN12K1 renal): > 100 µM; TGI (SNB-78 CNS): > 100 µM; TGI (XF 498 CNS): > 100 µM |
| Nc1nc(Cl)nc2c1ncn2C1CCC(CO)O1 (configuration not stated) | > 100 | > 100 | > 100 |  | > 100 | > 100 |  |  |  |
| Clc1ccc(CSCc2ccc(Cl)cc2Cl)c(Cl)c1 | > 100 | > 100 | > 100 | > 100 | > 100 |  | > 100 | > 100 |  |
| N#CC(C#N)=Cc1ccc(-c2ccc(-c3nc4ccccc4s3)cc2)s1 | 85.2 | 78.5 |  | > 100 | 68.5 |  |  | 27.3 | GI50 (ACHN renal): 13.4 µM; GI50 (BT-549 breast): 31.1 µM; GI50 (KM12 colon): 19.9 µM; GI50 (MOLT-4 leukemia): 22.8 µM; GI50 (SF-268 CNS): 25.5 µM |
| CC(C)(C)C1=NN=C2c3ccccc3C(=O)C21 (configuration not stated) |  | > 100 |  | > 100 | 85 | 83 | > 100 | > 100 |  |
